Publication PMC6650905, “Development of a Novel Series of Anticancer and Antidiabetic: Spirothiazolidines Analogs” (Molecules, 2019)

Tests used:
[1] = target: T1, alpha-amylase (α–amylase); experiment: DNS colorimetric assay; type: biochemical; settings: starch 0.5%, 20 mM phosphate pH 6.9, 25 °C, 10 min preincubation
T1 construct: commercial preparation from Sigma-Aldrich

[2] = target: T2, alpha-glucosidase (Saccharomyces cerevisiae); experiment: p-nitrophenol release, absorbance […] nm; type: biochemical; settings: p-nitrophenyl alpha-D-glucopyranoside 5 mM stock (20 μL), 100 mM phosphate pH 6.8, 37 °C, 15 min preincubation
T2 construct: gene MAL12; commercial preparation from Sigma-Aldrich

| SMILES | ** IC50 [1] | ** IC50 [2] |
| --- | --- | --- |
| Nc1ccc(N2C(=O)CSC23CCCCC3)cc1 [compound 1, 4-(4-aminophenyl)-1-thia-4-azaspiro[4.5]decan-3-one] | 297.8 µg/mL | 120.22 µg/mL |
| NN=C1CSC2(CCCCC2)N1c1ccc(N)cc1 [compound 2, 4-(3-hydrazono-1-thia-4-azaspiro[4.5]decan-4-yl)aniline] | 421.42 µg/mL | 363.67 µg/mL |
| Nc1ccc(N2C(=O)C(=Cc3ccc(Cl)cc3)SC23CCCCC3)cc1 [compound 8, 4-(4-aminophenyl)-2-(4-chlorobenzylidene)-1-thia-4-azaspiro[4.5]decan-3-one] | 199.01 µg/mL | 114.45 µg/mL |
| Nc1ccc(N2c3[nH]nc(-c4ccc(Cl)cc4)c3SC23CCCCC3)cc1 [compound 9, 4-(3′-(4-chlorophenyl)-spiro[cyclohexane-1,5′-pyrazolo[3,4-d]thiazol]-6′ (1′H)-yl)aniline] | 58.85 µg/mL | 52.47 µg/mL |
| CCOC(=O)Cn1c2c(c(-c3ccc(Cl)cc3)c(C#N)c1=O)SC1(CCCCC1)N2c1ccc(N)cc1 [compound 16, Ethyl 2-(3′-(4-aminophenyl)-7′-(4-chlorophenyl)-6′-cyano-5′-oxo-3′,5′-dihydro-4′H-spiro [cyclohexane-1,2′-thiazolo[4,5-b]pyridin]-4′-yl)acetate] | > 1000 µg/mL | 570.4 µg/mL |

Second part, the compound after the results:

| ** IC50 [1] | ** IC50 [2] | SMILES |
| --- | --- | --- |
| 94.9 µg/mL | 63.6 µg/mL | N#Cc1c(N)nc2c(c1-c1ccc(Cl)cc1)SC1(CCCCC1)N2c1ccc(N)cc1 [compound 6, 5′-amino-3′-(4-aminophenyl)-7′-(4-chlorophenyl)-3′H-spiro[cyclohexane-1,2′-thiazolo[4,5-b]pyridine]-6′-carbonitrile] |
| 239.37 µg/mL | 117.36 µg/mL | N#Cc1c(-c2ccc(Cl)cc2)c2c([nH]c1=O)N(c1ccc(N)cc1)C1(CCCCC1)S2 [compound 7, 3′-(4-aminophenyl)-7′-(4-chlorophenyl)-5′-oxo-4′,5′-dihydro-3′H-spiro[cyclohexane-1,2′-thiazolo[4,5-b]pyridine]-6′-carbonitrile] |
| 271.3 µg/mL | 118.11 µg/mL | N#Cc1c(-c2ccc(Cl)cc2)c2c(n(CCO)c1=O)N(c1ccc(N)cc1)C1(CCCCC1)S2 [compound 13, 3′-(4-aminophenyl)-7′-(4-chlorophenyl)-4′-(2-hydroxyethyl)-5′-oxo-4′,5′-dihydro-3′H-spiro[cyclohexane-1,2′-thiazolo[4,5-b]pyridine]-6′-carbonitrile] |
